Literature values, collected in US20130202650A1, “TOPICAL COMPOSITION COMPRISING A COMBINATION OF AT LEAST TWO PENETRATION ENHANCING AGENTS” (Moberg Derma AB, priority 2008, published 2013).
Counter-ions that a name gives are not always drawn.

Conditions: tBtOH-IPM (2:8) vehicle; mouse

BZ flux from the mesylate salt: 2020 µg/cm²/h
BZ flux, fold greater than from water: 100 fold
BZ flux, fold greater than the individual neat solvents: 44-540 fold
Structure (SMILES): CN1[C@@H]2CC[C@H]1C[C@@H](OC(c1ccccc1)c1ccccc1)C2 [BZ mesylate, benztropine]
